Results: US20120220480A1, “METHOD FOR THE DETECTION OF RENAL DAMAGE” (UNIVERSIDAD DE SALAMANCA, priority 2009, published 2012)
Marks after values point to notes of the source that are not given here.

Experiments:
Female Wistar rats = test: Gentamicin-induced kidney damage in rats: survival, body weight, serum and urine biochemical measurements
Procedure: (§1) Female Wistar rats were used weighing 200-250 g. The animals were allocated under controlled environmental conditions in individual metabolic cages, for individual urine sample collection every 24 hours. Normal feed and water were administered ad libitum. […] On day 7, the animals were anaesthetised with sodium pentobarbital and the kidneys were perfused by the aorta with saline (0.9% NaCl) to eliminate the blood. The kidneys were immediately dissected. One was frozen in liquid nitrogen and subsequently kept at −80° C. for Western blot studies, and the other was soaked in p-formaldehyde at 3.7% for histological studies. Blood samples were also obtained in heparinised capillaries at different time points by a small incision in the tail tip. Blood was centrifuged and serum was kept at −80° C. until use. Urine was cleared by centrifugation at 10,000 g and 4° C. during 10 minutes, and kept at −80° C. until use.
Serum and urinary creatinine and urea nitrogen concentration were measured using commercial reactive strips (Roche Diagnostics) and the Reflotron® automated analyser (Roche Diagnostics). […] Urine protein concentration was measured by the Bradford method (Bradford, 1976. Anal Biochem, 72: 248-254). Urine NAG content was indirectly determined by the level of NAG activity. NAG enzymatic activity was determined by a colorimetric method based on the conversion of 3-cresolsulfonphthaleinyl-N-acetyl-D-glucosaminide into the purple 3-cresol-cresolsulfonphthaleinyl, measured at 580 nm using a plate photometer (Thermo). To measure NAG activity a commercial kit was used (Roche Diagnostics) following the manufacturer's instructions.

gelsolin [1] = test: Western blot analysis of gelsolin in urine and serum of treated rats
Procedure: as §1
Western blots were run with (i) urine samples (21 μl per sample), (ii) tissue extracts (100 μg total protein per sample) prepared by homogenizing the kidneys with a tissue mixer (Ultra-Turrax T8, IKA®-Werwe) at 4° C. in homogenization buffer (140 mM NaCl, 20 mM Tris-HCl pH=7.5, […] ethylenediaminetetraacetic acid—EDTA-, 10% glycerol, 1% Igepal CA-630, 1 μg/mL aprotinin, 1 μg/mL leupeptin, 1 μg/mL pepstatin A, 1 mM phenylmethylsulphonyl fluoride—PMSF—), or (iii) albumin-free blood serum. Albumin was removed from serum with a column-based, commercial kit based on the immunological retention of rat albumin (Qproteome Murine Albumin Depletion Kit, Quiagen). Samples were separated by electrophoresis in 10-15% acrylamide gels (Mini Protean II system, BioRad). Immediately, proteins were electrically transferred to an Immobilon-P membrane (Millipore). Membranes were probed with antibodies against KIM-1 (R&D Systems), bone morphogenetic protein 7 (BMP-7, Santa Cruz Biotechnology), NGAL (MBL), PAI-1 (BD Biosciences), reg IIIb (R&D Systems), and gelsolin (Santa Cruz Biotechnology).

[2] = Leehey D J et al., 1993; cited from earlier work
reg IIIb [3] = test: Renal tissue gene expression by RT-PCR, reg IIIb; format: in vivo, rat; settings: as early as on day 3, highest on day 6 (FIG. 8-A)
Procedure: (§2) Female Wistar rats were used weighing 200-250 g. […] Normal feed and water were administered ad libitum. […] The kidneys were immediately dissected.
(§3) RT-PCR-amplification of reg IIIb, gelsolin and GAPDH was performed with the next primers: for rat reg IIIb, SEQ ID NO: 15 and SEQ ID NO: 16; for rat gelsolin, SEQ ID NO: 17 and SEQ ID NO: 18; for rat glyceraldehyde 3-phosphate dehydrogenase (GAPDH), SEQ ID NO: 19 and SEQ ID NO: 20. PCR conditions were: 1×(95° C.×4 min); 30×(95° C.×1 min+Tm×1 min); 1×72° C.×10 min); where Tm was 55.5° C. for reg IIIb, 55.0° C. for gelsolin, and 55.9° C. for GAPDH.

Kidney sections = test: Renal histopathological study (hematoxilin and eosin stained kidney sections); format: in vivo, rat; settings: rats
Procedure: as §2
The kidneys were kept in p-formaldehyde all night at 4° C. Next, paraffin blocks were made and 5-μm tissue sections were cut and stained with hematoxilin and eosin. Photographs were taken under an Olympus BX51 microscope connected to an Olympus DP70 colour digital camera.

gelsolin [4] = test: Renal tissue gene expression by RT-PCR, gelsolin; format: in vivo, rat; settings: 3 and 6 days treatment (FIG. 8)
Procedure: as §2, §3

reg IIIb [5] = test: Western blot analysis of reg IIIb in urine and serum of treated rats
Procedure: Female Wistar rats were used weighing 200-250 g. The animals were allocated under controlled environmental conditions in individual metabolic cages, for individual urine sample collection every 24 hours. Normal feed and water were administered ad libitum. […] On day 7, the animals were anaesthetised with sodium pentobarbital and the kidneys were perfused by the aorta with saline (0.9% NaCl) to eliminate the blood. The kidneys were immediately dissected. One was frozen in liquid nitrogen and subsequently kept at −80° C. for Western blot studies, and the other was soaked in p-formaldehyde at 3.7% for histological studies. Blood samples were also obtained in heparinised capillaries at different time points by a small incision in the tail tip. Blood was centrifuged and serum was kept at −80° C. until use. Urine was cleared by centrifugation at 10,000 g and 4° C. during 10 minutes, and kept at −80° C. until use. […]

[6] = rats, gentamicin i.p. 150 mg/kg, after 7 days treatment

Compound	Renal failure (serum creatinine concentration and BUN) (Female Wistar rats; rat, in vivo)	Full length gelsolin band in urine (gelsolin [1]; rat, in vivo)	~43 kDa gelsolin fragment (t-gelsolin) band in urine (gelsolin [1]; rat, in vivo)	Proteinuria (Female Wistar rats; [6])	Urine flow (Female Wistar rats; [6])	Δ Weight (body weight as a percentage of the initial weight) (Female Wistar rats; [6])	Proportion of treatments in which nephrotoxicity appears [2]	Renal reg IIIb gene expression (reg IIIb [3])	Full length gelsolin band in urine (gelsolin [1]; urine of rats with overt renal failure, Western blot (FIG. 6))	Renal histopathology after 3 days of treatment (Kidney sections; after 3 days of treatment (FIG. 7))	Renal histopathology at end of treatment (Kidney sections; hematoxilin-eosin, end of treatment (FIG. 2))	Renal expression pattern of gelsolin (gelsolin [4])	Day on which reg IIIb appears in the urine (reg IIIb [5]; rats, time course of treatment, Western blot (FIG. 7)) [days]	Urinary level of reg IIIb (reg IIIb [5]; urine of rats with overt renal failure, Western blot (FIG. 6-A))
N.N.[Cl][Pt][Cl] [cisplatin]	developed an overt renal failure	absent in the urine from all of the rats treated with cisplatin, except for one of them	common to both gentamicin and cisplatin groups	–	–	–	–	–	–	–	–	–	–	–
gentamicin	–	–	–	40 ± 7.4^a mg/day	18 ± 3^a mL/day	95 ± 3^a %	10-25%	induces an increase	induces the appearance	no findings of tubular damage	clear tubular necrosis	does not modify	4	markedly increased
